In PMC10098502, “Characterization of the molecular mechanisms of silicon uptake in coccolithophores” (Environmental Microbiology, 2022):

System: T1, CbSITL
T1 construct: gene SITL
Conditions: Na+-dependent; 150 mM external NaCl, 50 mM Tris pH 7.4, internal 150 mM KCl and 6 mM Zn acetate, valinomycin; sigmoidal rate curve

In the case of `O[Si](O)(O)O` [silicic acid], the Km is reported as 31.8 ± 2.5 µM.
